Reference: patent publication US8586109B2, “Annatto extract compositions including tocotrienols and tocopherols and methods of use” (American River Nutrition, Inc., priority 2003, dated 2013)

What was measured:
[1] = system: essential hypertension; experiment: Hypertension (Example 13); conditions: in vivo
Description: Also, C-5 unsubstituted tocols (i.e., all delta and gamma isomers) had this effect.

[2] = cited from earlier work
[3] = system: IKBKAP; conditions: Anderson et al. 2003; cited from earlier work
[4] = system: cholesterol; conditions: Pearce et al. 1992; cited from earlier work
[5] = system: spontaneous hypertensive rats (SHR); conditions: Newaz and Nawal 1999; cited from earlier work
[6] = system: C-reactive protein; conditions: higher dosage needed; cited from earlier work
[7] = some biologic systems; cited from earlier work

Molecule | NOS activity [1] | essential hypertension [1] | Biologic activity relative to alpha-T3 ([2]; greater than alpha-T3) | Biologic activity relative to gamma-T3 ([2]; greater than gamma-T3) | increase of IKBKAP gene transcription [3] [fold] | isomeric potency of cholesterol reduction (relative) [4] | development of increased blood pressure [1] | development of increased blood pressure [5] | required dosage to lower CRP to a comparable range, relative to annatto tocotrienols [6] | anti-oxidant power compared to alpha-T1 [7]
CC(C)=CCC/C(C)=C/CC/C(C)=C/CC[C@]1(C)CCc2cc(O)cc(C)c2O1 [Delta-tocotrienol, delta-tocotrienol] | increased NOS activity | reduced essential hypertension | 4-10 times | 1-2 times | 3.5 | greater than gamma-T3 | – | – | – | –
CC(C)=CCC/C(C)=C/CC/C(C)=C/CC[C@]1(C)CCc2cc(O)c(C)c(C)c2O1 [Gamma-T3, gamma-tocotrienol] | increased NOS activity | reduced essential hypertension | – | – | – | five-fold greater than alpha-T3 | prevented the development of increased blood pressure | prevent the development of increased blood pressure | – | –
Cc1c(C)c2c(c(C)c1O)CC[C@@](C)(CCC[C@H](C)CCC[C@H](C)CCCC(C)C)O2 [alpha-T1, Alpha-tocopherol] | – | – | – | – | – | – | – | – | approximately 10 fold | –
Alpha-tocotrienol | – | – | – | – | – | at least five-fold less active | – | – | – | (40-60X in some biologic systems). First discovered to reduce cholesterol,
